Test results taken from the METLIN SMRT retention time set (Domingo-Almenara et al. 2019).

Assay: gradient 5% acetonitrile 3 min, to 50% in 2 min, to 85% in 15 min, held 3 min, 100 µL/min
Details: column: Zorbax Extend-C18 2.1 x 50 mm; eluents: water / acetonitrile, 0.1% formic acid
Summary of the method: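 Pure standards were analyzed in mixtures of ~100 molecules using HPLC coupled to a quadrupole time-of-flight mass spectrometer, in both positive and negative ionization mode. Separation used a Zorbax Extend-C18 column (2.1 × 50 mm, 1.8 μm) at 100 μL/min, with water and acetonitrile each containing 0.1% formic acid. Dead and dwell volumes were 40 μL and 900 μL, and data were collected over 3 months. Retention time was read from computationally picked adduct peaks, each inspected manually.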

| RP-LC retention time | Structure (SMILES) |
| --- | --- |
| 729 s | CC(=O)n1nc(-c2ccccc2Cl)nc1N |
| 1270 s | Cc1ccc(CNC(=O)C2(C)CCN(S(=O)(=O)c3ccc(C4CCCCC4)cc3)CC2)cc1 |
| 642 s | CC1CCCCN1CCCN1C(=O)c2ccccc2C1C(=O)NC1CCCCC1 (stereo unspecified) |
| 1100 s | COC(=O)c1c(C)c(C(=O)C(C)N(CCC(C)C)C(=O)c2cccc(F)c2)c(C)n1C (stereo unspecified) |
| 963 s | CCc1ccc(OCC(=O)N(Cc2ccc(Br)o2)C2CCS(=O)(=O)C2)cc1 (stereo unspecified) |
| 819 s | CC1CCN(S(=O)(=O)c2ccc3c(c2)CCCC(=O)N3CC(=O)N2CCCC2)CC1 |
| 1180 s | Cc1ccc(-c2csc(NC(=O)CCCc3nc(-c4ccccc4Cl)no3)n2)cc1 |
| 902 s | O=C(Cn1ncc2c3ccccc3n(Cc3ccccc3)c2c1=O)N1CCN(c2ncccn2)CC1 |
| 979 s | Cc1ccc(OC(=O)c2cc3c(C)nn(-c4ccccc4)c3s2)cc1C |
| 783 s | CCCc1c(C(=O)NCC2CCCO2)nnn1-c1ccc(OC)cc1 (stereo unspecified) |
| 565 s | O=C(C1CCCN1)N1CCC(OCc2nc(-c3ccncc3)no2)CC1 (stereo unspecified) |
| 849 s | Cc1ccc(S(=O)(=O)N(C)CC2CCOC2)cc1F (stereo unspecified) |
| 783 s | CNC(=O)c1cc(-c2ccc(OC)cc2)n(C)c1C |
| 649 s | CCOCCCNCc1ccc(-c2ccccc2)o1 |
| 877 s | CC(C)(C)c1noc(-c2ccnc(-n3cnc(C(=O)NC4CC4)c3)c2)n1 |
| 807 s | CC(=O)Nc1cccc(N2CC(C(=O)Nc3ccc(Cl)c(C(F)(F)F)c3)CC2=O)c1 (stereo unspecified) |
| 555 s | O=C(CN1CCCCCC1)N1CCC2(CCC2O)CC1 (stereo unspecified) |
| 966 s | Cc1oc(-c2ccc(NC(=O)CC3CCCCC3)cc2)nc1Cn1cccn1 |
| 783 s | CC1CCC2(CC1)NC(=O)N(CC(=O)Nc1ccc3c(c1)OCCO3)C2=O (stereo unspecified) |
| 715 s | COc1ccc(C(=O)N2CCC3(CC2)NC(=O)c2ccc(F)cc2N3C)c(OC)c1 |
| 598 s | CCN1CCN(CCNC(=O)c2ccc(-c3ccc4c(c3)CCN4C(C)=O)cc2)CC1 |
| 1110 s | COc1cccc(-c2noc(Cn3c(=O)n(C(C)C)c(=O)c4ccccc43)n2)c1 |
| 773 s | CCn1nccc1C(=O)NCCn1c(=O)n(Cc2ccc(C)cc2)c2cccnc21 |

| RP-LC retention time | Structure (SMILES) |
| --- | --- |
| 667 s | COCCOCc1nc(C2CCCCN2C(=O)NC(C)C)no1 (stereo unspecified) |
| 1100 s | CCCn1cc(C(=O)Nc2ccc(OC)cc2)c(=O)c2ccc(C)nc21 |
| 863 s | Cc1ccc(Nc2ncccc2S(N)(=O)=O)cc1F |
| 591 s | COc1ccccc1CNCc1ccc2c(c1)n(C)c(=O)n2C |
| 1070 s | Cc1noc(-c2nc(-c3ccc(Cl)cc3)no2)n1 |
| 1000 s | CCN1C(SCC(=O)N(C)c2ccccc2)=NS(=O)(=O)c2ccccc21 |
| 627 s | CC(NC(=O)c1ccco1)c1nc2ccccc2n1CC(=O)N1CCCCC1 (stereo unspecified) |
| 824 s | Cc1cccc(OCc2nc(-c3cccc(-c4ccnn4C)c3)no2)c1 |
| 736 s | Cc1noc(C2CN(C(=O)CCCc3ccccc3)CC23CCOCC3)n1 (stereo unspecified) |
| 668 s | COc1cccc(NC(=O)Cn2nc3n(c2=O)CCCCC3)c1 |
| 733 s | CCOC(=O)C1CCN(c2cc3c(cc2NC(=O)C(C)C)n(C)c(=O)c(=O)n3C)CC1 |
| 930 s | CCOC(=O)c1c(C)[nH]c(C(=O)N2CCCC(C(=O)NCc3ccc(OC(C)C)cc3)C2)c1C (stereo unspecified) |
| 601 s | COc1cc(OC)cc(C(=O)N2CCN(c3cc(C)n4c(C)nnc4n3)CC2)c1 |
| 629 s | COc1ccc(CC(=O)NCc2c(C)nc3sc(C)nn23)cc1Cl |
| 870 s | O=C(Nc1cc(-c2ccccn2)no1)c1cccc(Cl)c1 |
| 679 s | CSc1cccc(NC(=O)N2CCC(c3cc(=O)n4nccc4n3C)CC2)c1 |
| 642 s | Cc1nn(C)c(C)c1CCN(C)C(=O)C1Cn2cccc2C(=O)N1CC(C)C (stereo unspecified) |
| 605 s | O=C(CN1CCN(Cc2ccccc2F)C1=O)NCc1ccc(N2CCCCC2)cc1 |
| 685 s | CC(=O)Nc1c(C)nn(-c2ccc(Cl)cc2)c1N1CCC(C(=O)NCc2ccco2)CC1 |
| 940 s | O=c1cc(-c2ccc(F)cc2)ncn1Cc1cccc(C(F)(F)F)c1 |
| 588 s | COc1ccc(-c2nnc(CC(=O)NCc3ccccn3)o2)cc1 |
| 616 s | CCCn1nc2n(c1=O)CCN(Cc1cn[nH]c1-c1cc(OC)ccc1OC)C2 |
| 1130 s | CC1CCN(C(=O)c2cn(-c3ccc(-c4nc(C(C)(C)C)no4)cn3)cn2)CC1 |

| RP-LC retention time | Structure (SMILES) |
| --- | --- |
| 809 s | O=C(c1ccc(Cl)cc1)N1CCN(c2cc(-c3cccs3)[nH]n2)CC1 |
| 896 s | CC(C)S(=O)(=O)c1cc2c(cc1NC(=O)c1ccc(C(F)(F)F)cc1)n(C)c(=O)n2C |
| 923 s | COc1ccc(COC(=O)C2=CN(Cc3ccc(OC)cc3)S(=O)(=O)N=C2C)cc1 |
| 636 s | CN1CCN(C(c2ccncc2)c2c(NC(=O)c3ccco3)sc3c2CCCC3)CC1 (stereo unspecified) |
| 746 s | O=C1CC(c2ccc(O)cc2)c2c(c(C(=O)O)cn2-c2cccc(C(F)(F)F)c2)N1 (stereo unspecified) |
| 590 s | O=C(NCCCN1CCCC1=O)c1cccc(N2CCNC(c3ccccc3)C2)n1 (stereo unspecified) |
| 693 s | CNC(=O)C1CCN(Cc2cc3ccccc3n2Cc2ccc(C)cc2)CC1 |
| 753 s | CCc1cccc(NC(=O)C2(C)CCCCC(=O)N2)c1 (stereo unspecified) |
| 1280 s | Cc1oc(-c2ccc(Cl)cc2)nc1COc1cc(C)c2c(C)nn(C)c2n1 |
| 639 s | COc1cccc(CCC(=O)NCC(=O)Nc2nc3ccccc3[nH]2)c1 |
| 1210 s | O=C(NCCc1ccccc1)c1cc2sccc2n1Cc1ccc(Cl)cc1 |
| 706 s | CCOc1cc(=O)n2c(c1C(=O)Nc1ccc(OC)cc1OC)CCCC2 |
| 680 s | COc1ccc(NC(=O)Cn2c(N3CCCCC3)nc(C)cc2=O)c(OC)c1 |
| 899 s | Brc1ccc(NCc2nnc(-c3ccccc3)o2)cc1 |
| 758 s | CCOC(=O)c1cnc2nc(C)ccc2c1Nc1ccc(Cl)cc1F |
| 799 s | CCc1ccccc1NS(=O)(=O)c1cc(-c2[nH]ncc2C(=O)N2CCCCC2)oc1C |
| 780 s | Cc1cccc(NC(=O)N2CCCC2c2cc(C)no2)c1 (stereo unspecified) |
| 676 s | O=C(c1ccsc1)N1CCCCC1c1nncn1-c1ccccc1 (stereo unspecified) |
| 604 s | O=C(NCc1ccc(N2CCOCC2)cc1)c1cn2c(n1)CSCC2 |
| 713 s | CCCNC(=O)c1ccc2c(c1)CCCN2S(C)(=O)=O |
| 1090 s | Cc1ccc(-c2noc(-c3nc(-c4ccncc4)no3)n2)cc1 |
| 585 s | COCc1cc(=O)n(CC(=O)Nc2ccc(F)cc2)c(N)n1 |
| 1000 s | CCS(=O)(=O)N1CC(=O)N(c2ccc(C)cc2C)C(C)(C(=O)NC2CCCCCC2)C1 (stereo unspecified) |

| RP-LC retention time | Structure (SMILES) |
| --- | --- |
| 841 s | COc1ccc(C)cc1NC(=O)Cn1nc2nc(N3CCCC(C)C3)ccn2c1=O (stereo unspecified) |
| 673 s | O=C(N1CCOCC1)C1(c2cc(-c3ccco3)on2)CC1 |
| 740 s | O=C1NCCCn2cc(S(=O)(=O)NCc3ccc(OC(F)(F)F)cc3)cc21 |
| 786 s | CN(c1nccn2c(=O)n(CC(=O)Nc3cc(F)ccc3F)nc12)C1CCCCC1 |
| 557 s | CN1CCN(CCCNC(=O)c2nccnc2NC(=O)c2ccccc2)CC1 |
| 1160 s | O=C(Nc1ccc(F)cc1)C1CCCN(S(=O)(=O)c2cc(-c3noc(C4CCC4)n3)cs2)C1 (stereo unspecified) |
| 564 s | Cc1cc(C)n(CC(=O)N[C@@H]2CN(S(C)(=O)=O)C[C@H]2CN(C)C)n1 |
| 564 s | CCc1nccn1Cc1noc(-c2ccccc2Cl)n1 |
| 1030 s | O=C1CC(c2cccc(Cl)c2)Cc2c1cnn2-c1nc2ccccc2[nH]1 (stereo unspecified) |
| 833 s | c1cnn(-c2cc(N3CCSCC3)ncn2)c1 |
| 1010 s | CC1CCCN(c2ccc(-c3noc(CN4CCN(c5ccccc5)CC4)n3)cn2)C1 (stereo unspecified) |
| 568 s | Cc1nc(CN2CC(c3nc(-c4cccs4)no3)C2)cs1 |
| 730 s | CCC1Oc2ccc(S(=O)(=O)N3CCC(C(=O)N4CCCC4)CC3)cc2NC1=O (stereo unspecified) |
| 1260 s | CCN(C(=O)Cc1ccc(OC)cc1)c1nc(-c2ccccc2)cs1 |
| 1200 s | CCCn1c(=O)c(C)nc2cc(-c3noc(-c4ccc(F)cc4)n3)ccc21 |
| 559 s | COCC1(O)CCOC2(CCN(Cc3cc(C)ccc3C)CC2)C1 (stereo unspecified) |
| 794 s | O=C(CN1C(=O)CCSc2ccccc21)NCc1ccc(F)cc1 |
| 647 s | O=C(NCc1cccc(Cl)c1)C1CCN(c2cncnc2N2CCOCC2)CC1 |
| 672 s | CC(=O)CCCCn1cnc2c1c(=O)n(C)c(=O)n2C |
| 1050 s | CC(C)c1noc(-c2cc(=O)n(CC(=O)Nc3ccccc3Cl)c3ccccc23)n1 |
| 734 s | O=C(N[C@H](Cc1ccccc1)C(=O)NCc1cscn1)c1ccccc1F |

| Structure (SMILES) | RP-LC retention time |
| --- | --- |
| C[C@H]1CC[C@]2(NC1)O[C@H]1C[C@H]3[C@@H]4CC[C@H]5C[C@@H](O)CC[C@]5(C)[C@H]4CC[C@]3(C)[C@H]1[C@@H]2C | 776 s |
